Publication PMC3961306, “Comparison of the Cancer Gene Targeting and Biochemical Selectivities of All Targeted Kinase Inhibitors Approved for Clinical Use” (PLoS ONE, 2014)
Where two headings read alike, the source gives them in different places.

Assays:
[1] = test system: forty-four human cancer cell lines; test: Cell proliferation assay (ATPlite, 72 hours) in the 44 cell line Oncolines panel; format: cell-based; conditions: Homo sapiens
[2] = target: T1, panel of more than 300 wild-type and mutant kinases (313 kinase panel) (Homo sapiens, UniProt O14920); test: Kinase profiling in a biochemical assay panel (mobility shift assays and ELISA), %-inhibition at 1 μM; selectivity entropy; conditions: kinase IKKβ; compound at 1 μM
T1 sequence (O14920 1-756): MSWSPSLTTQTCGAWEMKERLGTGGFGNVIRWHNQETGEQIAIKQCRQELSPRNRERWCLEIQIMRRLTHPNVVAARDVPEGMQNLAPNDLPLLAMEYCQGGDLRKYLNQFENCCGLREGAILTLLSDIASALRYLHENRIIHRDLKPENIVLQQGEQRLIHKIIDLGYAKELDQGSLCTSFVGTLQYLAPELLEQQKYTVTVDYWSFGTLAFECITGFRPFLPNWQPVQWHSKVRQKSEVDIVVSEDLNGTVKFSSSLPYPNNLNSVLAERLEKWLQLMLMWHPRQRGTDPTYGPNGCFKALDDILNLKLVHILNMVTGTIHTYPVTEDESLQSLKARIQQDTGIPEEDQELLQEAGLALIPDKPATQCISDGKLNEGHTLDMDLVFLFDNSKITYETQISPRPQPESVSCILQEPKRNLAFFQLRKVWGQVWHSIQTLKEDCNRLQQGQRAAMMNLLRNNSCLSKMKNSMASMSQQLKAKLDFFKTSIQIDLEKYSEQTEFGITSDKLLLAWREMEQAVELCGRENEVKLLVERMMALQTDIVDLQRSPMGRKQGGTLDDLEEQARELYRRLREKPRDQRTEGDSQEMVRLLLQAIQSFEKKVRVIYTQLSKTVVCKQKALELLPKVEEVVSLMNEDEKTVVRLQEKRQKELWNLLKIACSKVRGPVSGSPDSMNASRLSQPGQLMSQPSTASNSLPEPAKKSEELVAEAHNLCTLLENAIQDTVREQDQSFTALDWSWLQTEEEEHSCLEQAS

[3] = target: panel of more than 300 wild-type and mutant kinases (313 kinase panel) (Homo sapiens, UniProt O95819); test: as above; conditions: kinase HGK; compound at 1 μM
[4] = target: panel of more than 300 wild-type and mutant kinases (313 kinase panel) (Homo sapiens, UniProt P29376); test: as above; conditions: kinase LTK; compound at 1 μM
[5] = target: panel of more than 300 wild-type and mutant kinases (313 kinase panel) (Homo sapiens, UniProt Q13177); test: as above; conditions: kinase PAK2; 1 μM
[6] = target: panel of more than 300 wild-type and mutant kinases (313 kinase panel) (Homo sapiens, UniProt Q15303); test: as above; conditions: kinase HER4; compound at 1 μM
Chain of panel of more than 300 wild-type and mutant kinases (313 kinase panel) (Homo sapiens, UniProt Q15303) (Q15303 26-1308, change not shown): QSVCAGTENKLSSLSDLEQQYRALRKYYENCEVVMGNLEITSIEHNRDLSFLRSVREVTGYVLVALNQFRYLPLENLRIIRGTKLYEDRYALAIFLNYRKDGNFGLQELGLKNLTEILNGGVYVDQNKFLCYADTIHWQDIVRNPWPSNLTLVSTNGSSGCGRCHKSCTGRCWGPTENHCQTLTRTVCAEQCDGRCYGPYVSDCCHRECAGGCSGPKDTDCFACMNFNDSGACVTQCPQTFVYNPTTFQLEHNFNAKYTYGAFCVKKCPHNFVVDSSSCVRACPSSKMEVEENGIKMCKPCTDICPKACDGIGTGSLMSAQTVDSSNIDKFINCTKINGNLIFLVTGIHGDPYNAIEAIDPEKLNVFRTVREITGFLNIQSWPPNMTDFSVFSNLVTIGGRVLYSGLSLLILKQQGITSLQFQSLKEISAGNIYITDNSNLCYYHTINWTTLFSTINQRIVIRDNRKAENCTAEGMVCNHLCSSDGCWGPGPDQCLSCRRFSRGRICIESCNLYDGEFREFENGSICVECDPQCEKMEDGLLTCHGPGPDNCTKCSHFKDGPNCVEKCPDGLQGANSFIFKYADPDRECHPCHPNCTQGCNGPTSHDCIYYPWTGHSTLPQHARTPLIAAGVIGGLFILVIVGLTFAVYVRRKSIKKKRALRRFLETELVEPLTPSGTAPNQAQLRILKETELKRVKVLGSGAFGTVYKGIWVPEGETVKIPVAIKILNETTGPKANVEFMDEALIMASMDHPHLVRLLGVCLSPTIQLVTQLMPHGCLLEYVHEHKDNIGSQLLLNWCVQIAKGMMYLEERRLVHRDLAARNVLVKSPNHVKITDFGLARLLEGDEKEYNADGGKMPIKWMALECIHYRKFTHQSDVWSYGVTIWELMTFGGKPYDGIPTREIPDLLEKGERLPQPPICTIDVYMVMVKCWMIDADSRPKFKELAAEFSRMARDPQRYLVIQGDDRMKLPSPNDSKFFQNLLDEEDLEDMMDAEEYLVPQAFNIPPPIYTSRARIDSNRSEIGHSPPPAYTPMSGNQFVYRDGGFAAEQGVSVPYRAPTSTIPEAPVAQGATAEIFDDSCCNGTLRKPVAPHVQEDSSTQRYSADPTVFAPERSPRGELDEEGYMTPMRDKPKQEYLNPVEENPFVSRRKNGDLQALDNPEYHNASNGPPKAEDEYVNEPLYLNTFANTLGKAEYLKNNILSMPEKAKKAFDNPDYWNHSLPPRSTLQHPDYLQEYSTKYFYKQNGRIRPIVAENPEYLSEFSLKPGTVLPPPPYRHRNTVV

[7] = target: panel of more than 300 wild-type and mutant kinases (313 kinase panel) (Homo sapiens, UniProt Q16288); test: as above; conditions: kinase TRKC; 1 μM
[8] = target: T2, panel of more than 300 wild-type and mutant kinases (313 kinase panel) (Homo sapiens, UniProt Q96PF2); test: as above; conditions: kinase TSSK2; 1 μM
T2 sequence (Q96PF2 1-358): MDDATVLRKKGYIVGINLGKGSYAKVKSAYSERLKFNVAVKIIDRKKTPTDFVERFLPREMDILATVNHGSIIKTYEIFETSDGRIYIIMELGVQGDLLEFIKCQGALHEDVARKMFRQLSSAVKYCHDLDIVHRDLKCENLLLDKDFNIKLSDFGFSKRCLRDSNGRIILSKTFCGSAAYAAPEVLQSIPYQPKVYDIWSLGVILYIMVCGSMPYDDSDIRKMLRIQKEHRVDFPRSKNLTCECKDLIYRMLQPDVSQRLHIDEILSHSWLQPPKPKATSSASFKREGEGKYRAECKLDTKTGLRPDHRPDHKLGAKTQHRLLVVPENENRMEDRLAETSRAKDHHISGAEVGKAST

[9] = target: panel of more than 300 wild-type and mutant kinases (313 kinase panel) (Homo sapiens, UniProt Q9H2G2); test: as above; conditions: kinase SLK; 1 μM
[10] = target: panel of more than 300 wild-type and mutant kinases (313 kinase panel) (Homo sapiens, UniProt Q9H1R3); test: as above; conditions: kinase skMLCK; 1 μM
[11] = 4-4 cell, read-out: cell panel IC50, J82
[12] = 4-4 cell, read-out: cell panel IC50, SJCRH30
[13] = 4-4 cell, read-out: cell panel IC50, SR
[14] = 769-P, read-out: cell panel IC50, 769-P
[15] = 786-0, read-out: cell panel IC50, 786-0
[16] = A204, read-out: cell panel IC50, A-204
[17] = A498, read-out: cell panel IC50, A-498
[18] = A549, read-out: cell panel IC50, A-549
[19] = A-375, read-out: cell panel IC50, A375
[20] = A-427, read-out: cell panel IC50, A-427
[21] = ACHN, read-out: cell panel IC50, ACHN
[22] = AN3-CA, read-out: cell panel IC50, AN3 CA
[23] = AU565, read-out: cell panel IC50, AU-565
[24] = BT-20, read-out: cell panel IC50, BT-20
[25] = BT-549, read-out: cell panel IC50, BT-549
[26] = BXPC-3, read-out: cell panel IC50, BxPC-3
[27] = C-33-A, read-out: cell panel IC50, C-33 A
[28] = CAL-27, read-out: cell panel IC50, CAL 27
[29] = CCRF-CEM, read-out: cell panel IC50, CCRF-CEM
[30] = DLD-1, read-out: cell panel IC50, DLD-1
[31] = FaDu, read-out: cell panel IC50, FaDu
[32] = HCT-15, read-out: cell panel IC50, HCT-15
[33] = HCT-116, read-out: cell panel IC50, HCT-116
[34] = Hs-578T, read-out: cell panel IC50, Hs 578T
[35] = Jurkat E6.1, read-out: cell panel IC50, Jurkat E6.1
[36] = K562, read-out: cell panel IC50, K-562
[37] = LS174T, read-out: cell panel IC50, LS 174T
[38] = LoVo, read-out: cell panel IC50, LoVo
[39] = MG-63, read-out: cell panel IC50, MG-63
[40] = MOLT-4, read-out: cell panel IC50, MOLT-4
[41] = MeWo, read-out: cell panel IC50, MeWo
[42] = NCI-H82, read-out: cell panel IC50, NCI-H82
[43] = NCI-H460, read-out: cell panel IC50, NCI-H460
[44] = OVCAR-3, read-out: cell panel IC50, OVCAR-3
[45] = RPMI-7951, read-out: cell panel IC50, RPMI-7951
[46] = SHP77, read-out: cell panel IC50, SHP-77
[47] = SK-N-AS, read-out: cell panel IC50, SK-N-AS
[48] = SW48, read-out: cell panel IC50, SW48
[49] = SW480, read-out: cell panel IC50, SW480
[50] = SW-620, read-out: cell panel IC50, SW620
[51] = U2OS, read-out: cell panel IC50, U-2 OS
[52] = U-87 MG, 72 h, read-out: IC50 in cell proliferation assay (table S5 cellpanel data)

SMILES: Cc1ccc(Nc2nccc(N(C)c3ccc4c(C)n(C)nc4c3)n2)cc1S(N)(=O)=O [pazopanib]
- IC50 [1, 11]: 28.9 µM
- IC50 ([1]; 4-4 cell, read-out: cell panel IC50, PA-1): 10.6 µM
- IC50 [1, 12]: 9.59 µM
- IC50 [1, 13]: 6.2 µM
- IC50 [1, 14]: 5.99 µM
- IC50 [1, 15]: 8.1 µM
- IC50 ([1]; A 172, read-out: cell panel IC50, A-172): 13.1 µM
- IC50 [1, 16]: 0.229 µM
- IC50 [1, 17]: 11.1 µM
- IC50 [1, 18]: 14.8 µM
- IC50 [1, 19]: 16.7 µM
- IC50 [1, 20]: 7.3 µM
- IC50 [1, 21]: 9.33 µM
- IC50 [1, 22]: 0.289 µM
- IC50 [1, 23]: 6.57 µM
- IC50 [1, 24]: 19.2 µM
- IC50 [1, 25]: 7.91 µM
- IC50 [1, 26]: 6.71 µM
- IC50 [1, 27]: 7.9 µM
- IC50 [1, 28]: 18.6 µM
- IC50 [1, 29]: 10.9 µM
- IC50 [1, 30]: 10.5 µM
- IC50 [1, 31]: 11.5 µM
- IC50 [1, 32]: 11.8 µM
- IC50 [1, 33]: 17.4 µM
- IC50 [1, 34]: 11.5 µM
- IC50 [1, 35]: 4.58 µM
- IC50 [1, 36]: 12.5 µM
- IC50 [1, 37]: 9.94 µM
- IC50 [1, 38]: 7.39 µM
- IC50 [1, 39]: 13.5 µM
- IC50 [1, 40]: 6.89 µM
- IC50 [1, 41]: 25.4 µM
- IC50 [1, 42]: 8.41 µM
- IC50 [1, 43]: 1.63 µM
- IC50 [1, 44]: > 31.6 µM
- IC50 [1, 45]: 15.1 µM
- IC50 [1, 46]: 12.5 µM
- IC50 [1, 47]: 19.4 µM
- IC50 [1, 48]: 13.1 µM
- IC50 [1, 49]: 10.2 µM
- IC50 [1, 50]: 9.11 µM
- IC50 [1, 51]: 14 µM
- IC50 [1, 52]: 24 µM
- %-inhibition of IKKβ [2]: 0.627%
- %-inhibition of HGK [3]: 50%
- %-inhibition of LTK [4]: 27%
- %-inhibition of PAK2 [5]: 3.51%
- %-inhibition of HER4 [6]: 16%
- %-inhibition of TRKC [7]: 21%
- %-inhibition of TSSK2 [8]: -2.46%
- %-inhibition of SLK [9]: 28%

SMILES: COc1cc2c(Nc3ccc(Br)cc3F)ncnc2cc1OCC1CCN(C)CC1 [vandetanib]
- IC50 [1, 11]: 5.08 µM
- IC50 [1, 12]: 4.02 µM
- IC50 [1, 13]: 4.15 µM
- IC50 [1, 14]: 1.22 µM
- IC50 [1, 15]: 4.37 µM
- IC50 [1, 16]: 2.5 µM
- IC50 [1, 17]: 3.31 µM
- IC50 [1, 18]: 5.49 µM
- IC50 [1, 19]: 3.27 µM
- IC50 [1, 20]: 2.55 µM
- IC50 [1, 21]: 2.28 µM
- IC50 [1, 22]: 0.489 µM
- IC50 [1, 23]: 3.51 µM
- IC50 [1, 24]: 14.6 µM
- IC50 [1, 25]: 10 µM
- IC50 [1, 26]: 2.1 µM
- IC50 [1, 27]: 0.643 µM
- IC50 [1, 28]: 1 µM
- IC50 [1, 29]: 6.65 µM
- IC50 [1, 30]: 6.07 µM
- IC50 [1, 31]: 1.29 µM
- IC50 [1, 32]: 7.38 µM
- IC50 [1, 33]: 9.24 µM
- IC50 [1, 34]: 3.91 µM
- IC50 [1, 35]: 3.95 µM
- IC50 [1, 36]: 0.908 µM
- IC50 [1, 37]: 2.81 µM
- IC50 [1, 38]: 1.45 µM
- IC50 [1, 39]: 6.46 µM
- IC50 [1, 40]: 3.4 µM
- IC50 [1, 41]: 5.52 µM
- IC50 [1, 42]: 7.2 µM
- IC50 [1, 43]: 11.9 µM
- IC50 [1, 44]: 3.08 µM
- IC50 [1, 45]: 4.14 µM
- IC50 [1, 46]: 14.6 µM
- IC50 [1, 47]: 4.23 µM
- IC50 [1, 48]: > 31.6 µM
- IC50 [1, 49]: 13.8 µM
- IC50 [1, 50]: 16.4 µM
- IC50 [1, 51]: 4.09 µM
- IC50 [1, 52]: 7.41 µM
- %-inhibition of IKKβ [2]: -4.53%
- %-inhibition of HGK [3]: 69%
- %-inhibition of PAK2 [5]: -2%
- %-inhibition of TRKC [7]: 15%
- %-inhibition of TSSK2 [8]: -9%
- %-inhibition of skMLCK [10]: 13%
- %-inhibition of SLK [9]: 90%
